Data on one molecule can be found in US20110319811A1 (priority 2010, published 2011).

Like-named read-outs stand apart in the source and are kept apart here.

This data set can be described thus: Pharmacokinetic study GW01-0706 under maximal use conditions (serum imiquimod). The format is in vivo, human. The method, then: An open label, single center, non-randomized pharmacokinetic (PK) study in adult subjects diagnosed with actinic keratosis (“AK”) is conducted. […] The study is conducted under maximal use conditions (dose, duration, disease severity, and application areas) in a population that had at least 10 AK lesions in the application area. The application area is the entire face (exclusive of nares, vermilion, periocular areas and ears) and/or the entire balding scalp; areas estimated as approximately 200 cm^2. If the area of the entire balding scalp is less than 200 cm^2, the forehead area is included in order for the entire treatment area to be approximately 200 cm^2.
Subjects stay at the study center overnight at treatment initiation (Day 1, 1st dose), and end of treatment (Day 21, last dose) visits for collection of a 24-hour serum PK profile. […] Single serum samples for PK analyses of trough concentrations are obtained at Day 7 and Day 14 (in the morning prior to dosing).
Adverse events, study medication accountability, and dosing compliance are reviewed at each visit. Routine clinical laboratory assessments (serum chemistry, hematology and urinalysis) are performed at Screening, Day 1 (predose), and the end of study visits.
Trough serum concentrations are obtained on Days 7, 14, 21, and 22. The trough concentrations on Days 7 and 14 are obtained during outpatient treatment while the trough concentrations on Days 21 and 22 are obtained while the subjects are dosed in the clinical research facility.

Setting [1] is: Steady-State (Day 21), 3.75% imiquimod cream 2 packets daily.

As for `CC(C)Cn1cnc2c(N)nc3ccccc3c21` [imiquimod, 1-isobutyl-1H-imidazo[4,5-c]-quinolin-4-amine], the “Imiquimod trough concentration, Geometric LS Mean Reference” value (Day 21/14 comparison (Reference = Day 14), subjects with paired, non-zero data, 3.75% imiquimod cream 2 packets daily) worked out at 0.1344 ng/mL. For the same molecule, under “Day 21/14 comparison (Test = Day 21), subjects with paired, non-zero data, 3.75% imiquimod cream 2 packets daily”, the “Imiquimod trough concentration, Geometric LS Mean Test” value amounted to 0.1791 ng/mL. Further, under setting [1], the “λz, Geometric Mean” value worked out at 0.027 h⁻¹; the “λz, Mean” value is 0.029 h⁻¹; the “λz, Median” value was found to be 0.0271 h⁻¹. For the same molecule, under “human, topical”, the concentration at 7 day (trough) is 0.128 ng/mL, the concentration at 14 day (trough) came out at 0.139 ng/mL, the concentration at 21 day (trough) was determined as 0.179 ng/mL and the concentration at 22 day (trough) worked out at 0.167 ng/mL. Also, for the setting “human, topical, Steady-State (Day 21), 3.75% imiquimod cream 2 packets daily, read-out: AUC0-24, Geometric Mean”, the AUC(0-t) stood at 5.03 ng·h/mL. Besides, under “human, topical, Steady-State (Day 21), 3.75% imiquimod cream 2 packets daily, read-out: AUC0-24, Mean”, the AUC(0-t) was 5.97 ng·h/mL. In addition, under “human, topical, Steady-State (Day 21), 3.75% imiquimod cream 2 packets daily, read-out: AUC0-24, Median”, the AUC(0-t) was determined as 7.02 ng·h/mL. For the same molecule, under “human, topical, Steady-State (Day 21), 3.75% imiquimod cream 2 packets daily, read-out: Cmax, Geometric Mean”, the Cmax worked out at 0.274 ng/mL. Further, under “human, topical, Steady-State (Day 21), 3.75% imiquimod cream 2 packets daily, read-out: Cmax, Mean”, the Cmax came out at 0.323 ng/mL. Further, the highest concentration (Cmax) (human, topical, Steady-State (Day 21), 3.75% imiquimod cream 2 packets daily, read-out: Cmax, Median) came to 0.35 ng/mL.
